The subject of this assay is Demodex folliculorum. The assay can be described thus: In vitro killing of live Demodex on epilated eyelashes, observed by light microscopy over 90 minutes. The following applies: for Kill Rate: 90 min observation; for Average Time to Death: value 90 denotes no effect. An excerpt:
In Vitro Activity of Tapinarof Based Formulations in Killing Demodex folliculorum The purpose of this study is to evaluate the effectiveness of a composition comprising Tapinarof in killing Demodex for clinical treatment. […] Following informed consent, one to four lashes with significant cylindrical dandruff were selected for epilation. Lashes were firmly grasped near the base and gently teased out with a slow circular motion to prevent cylindrical dandruff and Demodex from being left behind on the lid margin. Epilated lashes were then placed onto a glass slide and the number of live organisms under light microscopy was then recorded. Lashes with live Demodex were then included in the study. Each lash obtained was then assigned to one of 13 study reagents (Table 1). […] Observation of the study material with the Demodex took place over 90 minutes with checks under light microscopy every five minutes for cessation of Demodex activity. Organism death was recorded when all rotary movement of Demodex appendages ceased. At least five lashes with live Demodex were evaluated for each reagent. Results were recorded in Microsoft Excel and statistical analysis for significant differences in average time to death were done with two-tailed t-test using the same software (Table 1). The value 90 was used to denote no effect.

Setting [1] is: reagent at 50%, checks every 5 min.
The mark [2] stands for this setting: reagent at 80%, checks every 5 min.
The mark [3] stands for this setting: tapinarof 0.1% in 50% isopropyl alcohol.
Where [4] appears, read: tapinarof 0.5% in 50% isopropyl alcohol.
The mark [5] stands for this setting: tapinarof 1% in 50% isopropyl alcohol.

Some results are limits rather than exact numbers.

On to `CC(C)=O` [Acetone], for which the “Kill Rate” value by setting is: under setting [1], 33%; under setting [2], 29%. For the same compound, the “Average Time to Death” value by setting is: (reagent at 50%) 82.5 min; (reagent at 80%) 9.7 min.
With `CC#N` [Acetonitrile], the “Kill Rate” value turned out to be 88% under setting [1] and 100% under setting [2]. The “Average Time to Death” value reads like this: (reagent at 50%) 31.43 min; (reagent at 80%) 5.83 min.
Turning to `CCO` [Ethanol], the “Kill Rate” value under setting [1] was found to be 100%. The “Average Time to Death” value (reagent at 50%) came to 33.64 min.
On the same counts, the results for `CC(C)O` [Isopropyl alcohol] are 0% and over 90 min.
For the compound `CC(C)c1c(O)cc(/C=C/c2ccccc2)cc1O` [Tapinarof, 3,5-dihydroxy-4-isopropyl-trans-stilbene], the “Kill Rate” value by setting is: under setting [3], 8%; under setting [4], 29%; under setting [5], 33%. Besides, the “Average Time to Death” value turned out to be 80 min under setting [3], 10.82 min under setting [4] and 60 min under setting [5]. The “in vitro killing effect against Demodex mites (in words)” value runs as follows: (tapinarof at the 0.1% concentration (p=0.34)) “a significant effect was not observed”; (tapinarof at the 0.5% and 1% concentrations) “moderate in vitro killing effect”.
On to `CCOCCOCCO` [Transcutol], for which the “Kill Rate” value is given as 100% under setting [1] and 100% under setting [2]. In addition, the “Average Time to Death” value was determined as 35 min (reagent at 50%) and 15 min (reagent at 80%).
